The data set is described as follows: Reaction product analysis (preparative isolation and HPLC). In kind it is physicochemical. The note with it: preparative scale reaction, not further hydrolyzed to N-benzoyl-L-cysteine. The protocol:
Compound 604a (0.39 mmol, 1.0 equivalents) was dissolved in 15 mL of 2:1 THF/PBS (10 mM, pH 7.4). L-cysteine methyl ester hydrochloride (1.17 mmol, 3.0 equivalents) was added in a single portion and stirred at room temperature for 2 hours. The reaction mixture was diluted with deionized H2O (˜20 mL) and extracted with CH2Cl2 (3×20 mL). The combined organic extracts were washed with brine and dried over MgSO4. After filtration, the solvent was removed under reduced pressure, and the purified by preparative thin layer chromatography (1:1 CH2Cl2 in hexanes). Compound 604a Rf=0.75 (63.6 mg, 76%) and CysDHT Rf=0.03 (11.0 mg, 13%) were isolated and characterized by ^1H and ^13C{^1H} NMR spectroscopy. The significant recovery of compound 604a is likely due to the lack of buffering capacity in the preparative-scale reaction.
To a 20 mL solution of 10% THF in PBS (10 mM, pH 7.4) containing 2 mM L-cysteine methyl ester (20 equivalents), 20 μL of 100 mM compound 604a in THF was added and stirred at room temperature. After 1 hour, a 1 mL reaction aliquot was analyzed by HPLC. HPLC analysis was performed on an Agilent 1260 HPLC instrument with a Poroshell 120 EC-C18 4.6×100 mm column and monitored at 280 nm. […] The concentration of CysDHT and phenol present at the end of the reaction were determined by measurement against calibration curves for each compound (see FIG. 4). […]

For `COC(=O)C1CSC(c2ccccc2)=N1` (stereo not shown) [CysDHT, Methyl 2-phenyl-4,5-dihydrothiazole-4-carboxylate], the “stability of dihydrothiazole under aqueous conditions” value is reported as “stable under aqueous conditions”.

(Values after patent US11078157B1, “Compound embodiments that release H2S by reaction with a reactive compound and methods of making and using the same” (University of Oregon, priority 2018, dated 2021).)
